The results in this text go back to patent publication US9695132B2, “Heteroaryl compounds and uses thereof” (Celgene CAR LLC, priority 2013, dated 2017).

Each structure is given as a SMILES string. Where two headings read alike, the source gives them in different places.

This test deals with FGFR4-WT (Homo sapiens (Human), UniProt P22455). The test can be described thus: Omnia assay for potency assessment against FGFR4 enzyme. It counts as biochemical. Here is the method:
A 10× stock solution of FGFR4-WT (PR4380C), (from Invitrogen, Carlsbad, Calif.) corresponding to method a in Table 7, was prepared as described below. Alternatively, a 10× stock solution of FGFR4-WT (F01-11G), (SignalChem, Richmond, BC) corresponding to method b in Table 7, was prepared as described below. A solution of 1.4×ATP (AS001A) and 5× Tyr-Sox conjugated peptide substrate (KNZ3101) were prepared in 1× kinase reaction buffer consisting of 20 mM Tris, pH 7.5, 5 mM MgCl2, 1 mM EGTA, 5 mM β-glycerophosphate, 5% glycerol (10× stock, KB002A) and 0.2 mM DTT (DS001A). […] The serially diluted compounds were prepared on a Tecan EVO100. A second addition of 10 μl of Tyr-Sox FGFR4 substrate was added to each well and the kinase reactions were started with the addition of 35 μL of 1.4×ATP. The reactions were monitored every 71 seconds for 240 minutes at λex360/λem485 in a Synergy plate reader from BioTek (Winooski, Vt.).

Where [1] appears, read: method a: [FGFR4-WT]=10 nM (Invitrogen), [ATP]=300 uM, [Y10-Sox]=10 uM.
Where [2] appears, read: method b: [FGFR4-WT]=2.5 nM (SignalChem), [ATP]=250 uM, [Y10-Sox]=10 uM.

Sequence of FGFR4-WT (P22455 22-802): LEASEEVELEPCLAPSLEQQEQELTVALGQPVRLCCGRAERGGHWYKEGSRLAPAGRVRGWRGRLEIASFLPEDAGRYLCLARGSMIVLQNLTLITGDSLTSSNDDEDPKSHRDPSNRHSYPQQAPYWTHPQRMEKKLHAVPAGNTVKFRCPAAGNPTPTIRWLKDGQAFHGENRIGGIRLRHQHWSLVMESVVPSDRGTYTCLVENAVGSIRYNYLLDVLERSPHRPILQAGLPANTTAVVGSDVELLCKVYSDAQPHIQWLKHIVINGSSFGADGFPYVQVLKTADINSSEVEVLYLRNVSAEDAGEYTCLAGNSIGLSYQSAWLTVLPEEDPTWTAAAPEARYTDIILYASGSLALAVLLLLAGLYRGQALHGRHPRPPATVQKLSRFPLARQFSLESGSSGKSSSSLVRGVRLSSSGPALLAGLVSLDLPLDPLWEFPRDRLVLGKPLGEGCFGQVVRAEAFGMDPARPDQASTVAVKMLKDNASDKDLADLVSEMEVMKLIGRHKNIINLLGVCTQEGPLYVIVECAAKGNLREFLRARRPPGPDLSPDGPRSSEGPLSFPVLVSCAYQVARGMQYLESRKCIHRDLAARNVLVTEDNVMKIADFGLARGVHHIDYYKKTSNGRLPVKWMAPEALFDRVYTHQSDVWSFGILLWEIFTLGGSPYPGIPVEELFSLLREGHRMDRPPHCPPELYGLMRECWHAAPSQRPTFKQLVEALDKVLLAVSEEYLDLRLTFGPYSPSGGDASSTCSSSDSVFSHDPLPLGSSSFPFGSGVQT

In the case of `C=CC(=O)Nc1ccccc1Nc1ncc2c(n1)N(CCC(O)CO)C(=O)N(c1cc(OC)cc(OC)c1)C2` (stereo not shown) [Compound I-58], the 50% inhibitory concentration (IC50) (usually the concentration at which inhibition is half-maximal) under setting [1] is below 0.1 µM. On to `C=CC(=O)Nc1ccccc1Nc1ncc2c(n1)N(C)C(=O)N(c1c(Cl)c(OC)cc(OC)c1Cl)C2` [Compound I-2], for which, under setting [2], the IC50 is below 0.1 µM. On to `C=CC(=O)Nc1ccccc1Nc1ncc2c(n1)N(Cc1csc(C)n1)C(=O)N(c1c(Cl)c(OC)cc(OC)c1Cl)C2` [Compound I-134], for which the IC50 under setting [1] was below 0.1 µM.

As to `C=CC(=O)Nc1cc(C2CCN(CC)CC2)ccc1Nc1ncc2c(n1)N(C)C(=O)N(c1cc(OC)cc(OC)c1)C2` [Compound I-54], under setting [1], the 50% inhibitory concentration (IC50) is below 0.1 µM. Consider `C=CC(=O)N[C@@H]1CCCC[C@@H]1Nc1ncc2c(n1)N(Cc1ccccc1)C(=O)N(c1c(Cl)c(OC)cc(OC)c1Cl)C2` [Compound I-66], for which the concentration for half-maximal inhibition (IC50) under setting [1] was above 1 µM. On the same count and under the same terms, the same measure for `C=CC(=O)N[C@H]1CCCC[C@H]1Nc1ncc2c(n1)N(Cc1ccn(C)n1)C(=O)N(c1c(Cl)c(OC)cc(OC)c1Cl)C2` [Compound I-147]: below 0.1 µM; for `C=CC(=O)NC1CCCCC1Nc1ncc2c(n1)N(CC1CC1)C(=O)N(c1cc(OC)cc(OC)c1Cl)C2` (stereo not shown) [Compound I-101]: 0.101 to 0.5 µM. In the case of `C=CC(=O)Nc1cc(C(=O)NC2CCN(C)CC2)ccc1Nc1ncc2c(n1)N(C)C(=O)N(c1c(Cl)c(OC)cc(OC)c1Cl)C2` [Compound I-150], the concentration for half-maximal inhibition (IC50) under setting [1] is below 0.1 µM.

In the case of `C=CC(=O)Nc1ccc(-c2nccs2)cc1Nc1ncc2c(n1)N(C)C(=O)N(c1cc(OC)cc(OC)c1)C2` [Compound I-78], the IC50 under setting [1] is below 0.1 µM. Consider `C=CC(=O)Nc1ccccc1Oc1ncc2c(n1)N(C)C(=O)N(c1c(Cl)c(OC)cc(OC)c1Cl)C2` [Compound I-65], for which the IC50 under setting [1] was below 0.1 µM. For the molecule `C=CC(=O)Nc1cc(CN2CCN(CC)CC2)ccc1Nc1ncc2c(n1)N(C)C(=O)N(c1cc(OC)cc(OC)c1)C2` [Compound I-122], under setting [1], the IC50 lay within 0.101 to 0.5 µM. For the molecule `C=CC(=O)N[C@H]1CCCC[C@H]1Nc1ncc2c(n1)N(C)C(=O)N(c1ccc(OC)cc1)C2` [Compound I-222], the half-maximal inhibitory concentration (IC50) under setting [1] is above 1 µM.

`C=CC(=O)Nc1cc(N2CCN(C(=O)CCC(=O)O)CC2)ccc1Nc1ncc2c(n1)N(C)C(=O)N(c1c(Cl)c(OC)cc(OC)c1Cl)C2` [Compound I-123]: under setting [1], the IC50 is below 0.1 µM. For `C=CC(=O)Nc1ccccc1Nc1ncc2c(n1)N(Cc1ccc(Cl)c(OC)c1)C(=O)N(c1c(Cl)c(OC)cc(OC)c1Cl)C2` [Compound I-24], the half-inhibitory concentration (IC50) under setting [2] was below 0.1 µM. Take `C=CC(=O)Nc1cc(N2CCN(CC)CC2)ccc1Nc1ncc2c(n1)N(C)C(=O)N(c1cc(OC)cc(OC)c1)C2` [Compound I-15]: the 50% inhibitory concentration (IC50) under setting [2] is below 0.1 µM. Turning to `C=CC(=O)NC1CNC(=O)CC1Nc1ncc2c(n1)N(C)C(=O)N(c1c(Cl)c(OC)cc(OC)c1Cl)C2` (stereo not shown) [Compound I-196], under setting [1], the IC50 is below 0.1 µM. Take `C=CC(=O)Nc1ccccc1Nc1ncc2c(n1)N(C)C(=O)N(c1cc(OC)cc(OC)c1Cl)C2` [Compound I-75]: the half-maximal inhibitory concentration (IC50) under setting [1] is below 0.1 µM. For the molecule `CCC(=O)Nc1ccccc1Nc1ncc2c(n1)N(C)C(=O)N(c1c(Cl)c(OC)cc(OC)c1Cl)C2` [Compound I-235], the IC50 under setting [2] was in the range of 0.101 to 0.5 µM.

For `C=CC(=O)Nc1ccccc1Nc1ncc2c(n1)N(C)C(=O)N(C1CCCCC1)C2` [Compound I-52], the IC50 under setting [1] is 0.501 to 0.999 µM. As to `C=CC(=O)Nc1ccccc1Nc1ncc2c(n1)N(CC(=O)OC(C)(C)C)C(=O)N(c1cc(OC)cc(OC)c1)C2` [Compound I-96], the IC50 under setting [1] was above 1 µM. Regarding `C=CC(=O)N[C@H]1CCCC[C@H]1Nc1ncc2c(n1)N(Cc1ccccc1)C(=O)N(c1c(Cl)c(OC)cc(OC)c1Cl)C2` [Compound I-82], the IC50 is below 0.1 µM. For `C=CC(=O)Nc1ccccc1Nc1ncc2c(n1)N(Cc1ccc(F)c(N)c1)C(=O)N(c1c(Cl)c(OC)cc(OC)c1Cl)C2` [Compound I-144], the IC50 under setting [1] is below 0.1 µM. For the molecule `C=CC(=O)Nc1ccccc1Nc1ncc2c(n1)N(CC1CCNCC1)C(=O)N(c1cc(OC)cc(OC)c1)C2` [Compound I-40], the IC50 under setting [1] is below 0.1 µM.

Consider `C=CS(=O)(=O)Nc1ccccc1Nc1ncc2c(n1)N(C)C(=O)N(c1cc(OC)cc(OC)c1)C2` [Compound I-67], for which, under setting [1], the half-inhibitory concentration (IC50) is below 0.1 µM. On to `C=CC(=O)N[C@H]1CCCC[C@H]1Nc1ncc2c(n1)N(Cc1cn[nH]c1)C(=O)N(c1c(Cl)c(OC)cc(OC)c1Cl)C2` [Compound I-152], for which the half-maximal inhibitory concentration (IC50) under setting [1] is below 0.1 µM.

`C=CC(=O)Nc1ccccc1Nc1ncc2c(n1)N(C)C(=O)N(c1cc(OC)cc(OC)c1F)C2` [Compound I-108]: the half-maximal inhibitory concentration (IC50) under setting [1] was below 0.1 µM. Turning to `C=CCCN1C(=O)N(c2cc(OC)cc(OC)c2)Cc2cnc(Nc3ccccc3NC(=O)C=C)nc21` [Compound I-57], the IC50 under setting [1] is below 0.1 µM. In the case of `C=CC(=O)Nc1ccccc1Nc1ncc2c(n1)N(Cc1ccn(C)n1)C(=O)N(c1c(Cl)c(OC)cc(OC)c1Cl)C2` [Compound I-136], the IC50 under setting [1] was below 0.1 µM.

With `C=CC(=O)Nc1cc(N2CCOCC2)ccc1Nc1ncc2c(n1)N(C)C(=O)N(c1cc(OC)cc(OC)c1)C2` [Compound I-17], the half-inhibitory concentration (IC50) under setting [1] was below 0.1 µM. On to `C=CC(=O)NCc1ccccc1Nc1ncc2c(n1)N(C)C(=O)N(c1c(Cl)c(OC)cc(OC)c1Cl)C2` [Compound I-181], for which, under setting [2], the IC50 was below 0.1 µM.

In the case of `C=CC(=O)Nc1cc(-c2nnn(C)n2)ccc1Nc1ncc2c(n1)N(C)C(=O)N(c1c(Cl)c(OC)cc(OC)c1Cl)C2` [Compound I-145], the IC50 under setting [1] is below 0.1 µM. For `C=CC(=O)Nc1cc(C(F)(F)F)ccc1Nc1ncc2c(n1)N(Cc1ccccc1)C(=O)N(c1c(Cl)c(OC)cc(OC)c1Cl)C2` [Compound I-10], the IC50 under setting [2] is above 1 µM. Take `C=CC(=O)NC1CCCCC1Nc1ncc2c(n1)NC(=O)N(c1c(Cl)c(OC)cc(OC)c1Cl)C2` (racemic) [Compound I-73]: under setting [1], the half-maximal inhibitory concentration (IC50) lay in the range of 0.101 to 0.5 µM. For `COc1cc(OC)cc(N2Cc3cnc(Nc4ccccc4)nc3N(C)C2=O)c1` [Compound I-237], under setting [1], the IC50 is 0.101 to 0.5 µM. Regarding `C=CCN1C(=O)N(c2cc(OC)cc(OC)c2)Cc2cnc(Nc3ccccc3NC(=O)C=C)nc21` [Compound I-32], the concentration for half-maximal inhibition (IC50) under setting [1] was below 0.1 µM. For `C=CC(=O)Nc1cc(-c2cnn(C)c2)ccc1Nc1ncc2c(n1)N(C)C(=O)N(c1cc(OC)cc(OC)c1)C2` [Compound I-77], the IC50 under setting [1] was below 0.1 µM.

`C=CC(=O)Nc1ccc(-c2cnn(C)c2)cc1Nc1ncc2c(n1)N(C)C(=O)N(c1c(Cl)c(OC)cc(OC)c1Cl)C2` [Compound I-74]: the 50% inhibitory concentration (IC50) under setting [1] was below 0.1 µM. `C=CC(=O)Nc1cc(OCCOC)ccc1Nc1ncc2c(n1)N(Cc1ccccc1)C(=O)N(c1cc(OC)cc(OC)c1)C2` [Compound I-14]: the 50% inhibitory concentration (IC50) under setting [2] was below 0.1 µM. As for `C=CC(=O)Nc1ccc(C)cc1Nc1ncc2c(n1)N(C)C(=O)N(c1cc(OC)cc(OC)c1)C2` [Compound I-49], under setting [1], the IC50 is below 0.1 µM. Turning to `C=CC(=O)Nc1ccccc1Nc1ncc2c(n1)N(C1CC1)C(=O)N(c1cc(OC)cc(OC)c1)C2` [Compound I-34], the IC50 under setting [1] is below 0.1 µM. As for `C=CC(=O)Nc1ccccc1Nc1ncc2c(n1)N(CC1CCN(C(=O)OC(C)(C)C)CC1)C(=O)N(c1cc(OC)cc(OC)c1)C2` [Compound I-60], under setting [1], the IC50 was below 0.1 µM. Same read-out and setting: the same measure for `C=CC(=O)NC1CN(c2ccccn2)CC1Nc1ncc2c(n1)N(C)C(=O)N(c1c(Cl)c(OC)cc(OC)c1Cl)C2` (stereo not shown) [Compound I-202]: below 0.1 µM. Turning to `C=CC(=O)Nc1cc(Cl)c(Cl)cc1Nc1ncc2c(n1)N(Cc1ccccc1)C(=O)N(c1c(Cl)c(OC)cc(OC)c1Cl)C2` [Compound I-11], the IC50 under setting [2] fell in the range of 0.501 to 0.999 µM. As to `C=CC(=O)N(C)c1ccccc1Nc1ncc2c(n1)N(Cc1ccccc1)C(=O)N(c1c(Cl)c(OC)cc(OC)c1Cl)C2` [Compound I-37], the IC50 under setting [1] lay within 0.101 to 0.5 µM. As to `C=CC(=O)Nc1ccccc1Nc1ncc2c(n1)N(CC1CC1)C(=O)N(c1cc(OC)cc(OC)c1F)C2` [Compound I-109], the half-inhibitory concentration (IC50) under setting [1] was below 0.1 µM.

As to `C=CC(=O)Nc1ccccc1Nc1ncc2c(n1)N(C1CC1)C(=O)N(c1c(Cl)c(OC)cc(OC)c1Cl)C2` [Compound I-23], the half-inhibitory concentration (IC50) under setting [2] was below 0.1 µM. For the molecule `C=CC(=O)Nc1ccccc1Nc1ncc2c(n1)N(Cc1ccnc(N)c1)C(=O)N(c1c(Cl)c(OC)cc(OC)c1Cl)C2` [Compound I-135], under setting [1], the concentration for half-maximal inhibition (IC50) is below 0.1 µM. Regarding `C=CC(=O)Nc1ccc(N2CCN(CC)CC2)cc1Nc1ncc2c(n1)N(C)C(=O)N(c1cc(OC)cc(OC)c1)C2` [Compound I-30], the IC50 under setting [1] was below 0.1 µM. On to `C=CC(=O)Nc1cc(C2=CCN(CC)CC2)ccc1Nc1ncc2c(n1)N(C)C(=O)N(c1cc(OC)cc(OC)c1)C2` [Compound I-56], for which the IC50 under setting [1] was below 0.1 µM. Still for that read-out and setting: the same measure for `C=CC(=O)Nc1cc(-c2nccs2)ccc1Nc1ncc2c(n1)N(C)C(=O)N(c1cc(OC)cc(OC)c1)C2` [Compound I-84]: 0.501 to 0.999 µM; for `C=CC(=O)Nc1ccc(-c2cnn(C)c2)cc1Nc1ncc2c(n1)N(C)C(=O)N(c1cc(OC)cc(OC)c1)C2` [Compound I-27]: below 0.1 µM. For the molecule `C=CC(=O)Nc1ccccc1Nc1ncc2c(n1)N(C)C(=O)N(c1ccccc1)C2` [Compound I-38], the 50% inhibitory concentration (IC50) under setting [1] fell in the range of 0.501 to 0.999 µM. The same measure, in the same setting: with `C=C(C)C(=O)Nc1ccccc1Nc1ncc2c(n1)N(C)C(=O)N(c1c(Cl)c(OC)cc(OC)c1Cl)C2` [Compound I-142] the figure was below 0.1 µM; with `C=CC(=O)Nc1cc(N2CCCCC2)ccc1Nc1ncc2c(n1)N(C)C(=O)N(c1cc(OC)cc(OC)c1)C2` [Compound I-31], below 0.1 µM; with `C=CC(=O)Nc1ccccc1Nc1ncc2c(n1)N(CC)C(=O)N(CC)C2` [Compound I-120], above 1 µM.
